“And” between values parts separate entries of the source, which are not always exact repeats. Identical values can stand only once.
Test system: RPMI-8226 cells
Assay: Gene expression profiling, NanoString nCounter PanCancer Pathways Panel, ROSALIND analysis
Assay type: cell-based, human
Conditions: RPMI-8226, TCH-165 samples 1-3
Experimental: RPMI-8226 cells were treated with vehicle or TCH-165 (10 μM) for 4 h. Total RNA was obtained using the mirVana miRNA Isolation Kit, with phenol (Thermofisher Scientific; AM1560; Waltham, MA, USA). Total RNA was quantified by Qubit (Thermofisher Scientific; Q32855; Waltham, MA, USA). and gene expression was evaluated against the nCounter® PanCancer Pathways Panel^TM according to the standard NanoString protocol.
Data were analyzed by ROSALIND® [36] with a hyperscale architecture developed by ROSALIND, Inc. (San Diego, CA, USA). Normalization, fold changes and p-values were calculated using criteria provided by NanoString. ROSALIND follows the nCounter® Advanced Analysis protocol of dividing counts within a lane by the geometric mean of the normalizer probes from the same lane. Housekeeping probes to be used for normalization are selected based on the geNorm algorithm, as implemented in the NormqPCR R library. Fold changes and p-values are calculated using the fast method as described in the nCounter Advanced Analysis 2.0 User Manual. The p-value adjustment is performed using the Benjamini–Hochberg method of estimating false discovery rates (FDR). Clustering of genes for the final heatmap of differentially expressed genes was done using the PAM (Partitioning Around Medoids) method using the fpc R library. Hypergeometric distribution was used to analyze the enrichment of pathways, gene ontology, domain structure and other ontologies. The topGO R library was used to determine local similarities and dependencies between GO terms in order to perform Elim pruning correction. Several database sources were referenced for enrichment analysis, including Interpro [40], NCBI [41], MSigDB [42, 43], REACTOME [44], WikiPathways. Enrichment was calculated relative to a set of background genes relevant to the experiment.

CCOC(=O)[C@]1(c2ccccc2)N=C(c2ccc(OC)cc2)N(Cc2ccccc2)[C@@H]1c1ccc(NCc2ccccc2)cc1 [TCH-165]
LIFR normalized gene expression: 4.488 and 4.2133 and 4.184
LIG4 normalized gene expression: 6.629 and 6.817 and 6.796
LRP2 normalized gene expression: 4.308 and 3.657 and 4.341
LTBP1 normalized gene expression: 6.378 and 6.402 and 6.366
MAD2L2 normalized gene expression: 10.1336 and 10.1942 and 10.1645
MAP2K1 normalized gene expression: 10.0208 and 10.0248 and 9.981
MAP2K2 normalized gene expression: 10.108 and 10.1628 and 10.1486
MAP2K4 normalized gene expression: 7.169 and 6.524 and 6.893
MAP2K6 normalized gene expression: 4.924 and 4.855 and 5.0068
MAP3K1 normalized gene expression: 10.6246 and 10.5002 and 10.4469
MAP3K5 normalized gene expression: 6.704 and 6.918 and 6.75
MAP3K8 normalized gene expression: 6.308 and 6.569 and 6.506
MAP3K12 normalized gene expression: 5.571 and 5.476 and 5.0682
MAP3K13 normalized gene expression: 7.948 and 7.905 and 8.019
MAP3K14 normalized gene expression: 7.978 and 7.887 and 7.688
MAPK1 normalized gene expression: 8.625 and 8.638 and 8.461
MAPK3 normalized gene expression: 9.736 and 9.67 and 9.676
MAPK8IP1 normalized gene expression: 5.86 and 4.739 and 5.0068
MAPK8IP2 normalized gene expression: 4.208 and 3.657 and 4.39
MAPK8 normalized gene expression: 7.835 and 7.506 and 7.597
MAPK9 normalized gene expression: 8.658 and 8.617 and 8.437
MAPK10 normalized gene expression: 5.101 and 4.2133 and 4.876
MAPK12 normalized gene expression: 7.499 and 7.109 and 7.1906
MAPT normalized gene expression: 5.355 and 5.351 and 5.5707
MCM2 normalized gene expression: 10.402 and 10.4329 and 10.4331
MCM4 normalized gene expression: 11.2136 and 11.1596 and 11.149
MCM5 normalized gene expression: 10.3105 and 10.197 and 10.1802
MCM7 normalized gene expression: 13.0908 and 13.0284 and 12.9867
MDC1 normalized gene expression: 10.2272 and 10.2142 and 10.1897
MDM2 normalized gene expression: 10.4133 and 10.3393 and 10.3264
MECOM normalized gene expression: 7.156 and 6.927 and 6.814
MED12 normalized gene expression: 8.477 and 8.644 and 8.469
MEN1 normalized gene expression: 9.714 and 9.644 and 9.611
MET normalized gene expression: 5.924 and 5.093 and 5.613
MFNG normalized gene expression: 9.115 and 9.16 and 9.044
MGMT normalized gene expression: 8.108 and 8.085 and 8.034
MLF1 normalized gene expression: 5.86 and 5.9093 and 5.712
MLH1 normalized gene expression: 9.392 and 9.378 and 9.34
MLLT3 normalized gene expression: 6.776 and 6.688 and 6.449
MLLT4 normalized gene expression: 8.677 and 8.597 and 8.636
MMP3 normalized gene expression: 4.401 and 3.27 and 4.341
MMP7 normalized gene expression: 5.571 and 5.242 and 5.238
MMP9 normalized gene expression: 4.649 and 4.855 and 4.0068
MNAT1 normalized gene expression: 8.319 and 8.402 and 8.366
MPL normalized gene expression: 4.308 and 4.154 and 3.805
MPO normalized gene expression: 4.986 and 4.569 and 4.876
MSH2 normalized gene expression: 9.884 and 9.976 and 9.945
MSH6 normalized gene expression: 10.1754 and 9.989 and 10.0455
MTOR normalized gene expression: 9.008 and 8.985 and 8.893
MUTYH normalized gene expression: 6.74 and 6.512 and 6.663
MYB normalized gene expression: 9.142 and 9.166 and 9.1468
MYC normalized gene expression: 12.5611 and 12.5765 and 12.4952
MYCN normalized gene expression: 7.142 and 6.817 and 6.893
MYD88 normalized gene expression: 8.723 and 8.683 and 8.623
NASP normalized gene expression: 8.252 and 8.093 and 8.307
NBN normalized gene expression: 10.4814 and 10.4965 and 10.3946
NCOR1 normalized gene expression: 9.769 and 9.64 and 9.618
NF1 normalized gene expression: 9.325 and 9.277 and 9.208
NF2 normalized gene expression: 9.205 and 9.097 and 9.096
NFATC1 normalized gene expression: 5.355 and 5.427 and 5.461
NFE2L2 normalized gene expression: 10.2602 and 10.1647 and 10.2373
NFKB1 normalized gene expression: 8.156 and 8.124 and 8.177
NFKBIA normalized gene expression: 9.249 and 9.354 and 9.231
NGFR normalized gene expression: 5.445 and 5.154 and 5.098
NODAL normalized gene expression: 5.445 and 5.093 and 4.876
NOG normalized gene expression: 4.208 and 4.739 and 4.653
NOS3 normalized gene expression: 5.044 and 4.524 and 4.5707
NOTCH1 normalized gene expression: 8.62 and 8.452 and 8.261
NOTCH2 normalized gene expression: 10.6545 and 10.568 and 10.5378
NPM1 normalized gene expression: 7.667 and 7.529 and 7.245
NPM2 normalized gene expression: 2.401 and 2.739 and 2.805
NR4A1 normalized gene expression: 6.924 and 6.944 and 6.759
NR4A3 normalized gene expression: 4.488 and 4.427 and 4.769
NRAS normalized gene expression: 7.581 and 7.678 and 7.663
NTF3 normalized gene expression: 7.456 and 7.1988 and 7.251
NTHL1 normalized gene expression: 9.395 and 9.328 and 9.318
NTRK1 normalized gene expression: 4.793 and 3.569 and 3.483
NTRK2 normalized gene expression: 4.793 and 5.093 and 4.5707
NUMBL normalized gene expression: 5.955 and 5.891 and 5.693
NUPR1 normalized gene expression: 6.073 and 6.228 and 6.3536
OSM normalized gene expression: 5.101 and 5.636 and 5.0682
PAK3 normalized gene expression: 4.488 and 4.27 and 3.876
PAX3 normalized gene expression: 4.649 and 4.029 and 4.0682
PAX5 normalized gene expression: 4.986 and 3.962 and 4.693
PAX8 normalized gene expression: 5.723 and 5.297 and 5.366
PBRM1 normalized gene expression: 9.417 and 9.5 and 9.432
PBX1 normalized gene expression: 8.776 and 8.575 and 8.5707
PBX3 normalized gene expression: 6.53 and 6.427 and 6.426
PCK1 normalized gene expression: 3.208 and 3.3768 and 3.0682
PCNA normalized gene expression: 10.03 and 10.0442 and 10.0502
